According to patent US10722586B2, “Filmogenic compositions for topical anaesthetic bioadhesives—tabs, for controlled release of active principles and topical anaesthetic bioadhesives” (UNIVERSIDADE FEDERAL DE PELOTAS, priority 2014, dated 2020):

Test system: cell line of mouse fibroblasts (NIH/3T3)
Assay: Cytotoxicity test (MTT, ISO 10993) on NIH/3T3 fibroblasts
Assay type: cell-based
Conditions: absorbance at 540 nm, mean (±SD)
Description: The cytotoxicity of the products of the invention is evaluated with the cell line of mouse fibroblasts (NIH/3T3).
The test is performed according to ISO 10993 (2009). The cell suspension is plated at a concentration of 2×10^4 cells per well and delivered into a cell culture dish of 96 wells. Each well receives 200 μl DMEM (Dulbecco's Modified Eagle Medium) supplemented with 10% Fetal Bovine Serum. The plate is then incubated at 37° C. in an atmosphere containing 5% CO2 for 24 hours. In control wells, 200 μl DMEM (Dulbecco's Modified Eagle Medium) is supplemented with fetal bovine serum 10%. After removal of the test extracts, 200 μl PBS (phosphate buffered saline) and 20 μl of MTT (tetrazolium salt [3-(4,5-dimetltiazol-2-yl)-2,5-diphenyltetrazolium bromide] are added to each well. The plate is incubated in a room without light for 24 hours at 37° C. After that, MTT is aspirated and 200 μl dimethylsulfoxide (DMSO) is added to each well. Thereafter, absorbance at 540 nm is measured using a spectrophotometer and the results were analyzed statistically.
The data are tabulated and submitted to Kruskal-Wallis nonparametric statistical analysis and Tukey's complementary test (p<0.05).
The results of cytotoxicity testing are illustrated in FIG. 10.

CCOC(=O)c1ccc(N)cc1 [Example P20, benzocaine]
ABSORBANCE (540 nm): 0.511 (±0.032)^A
